According to PubChem BioAssay (NCI):
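In this assay, cells in 96-well plates receive the compound at five concentrations for 48 hours. Endpoints are linearly interpolated between the surrounding concentrations. Definition used: TGI = concentration required for complete inhibition of growth.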

Key:
Assay in all cases: NCI-60 cell line screen, 48 h
UACC-257 melanoma = tested on: UACC-257 melanoma
U251 CNS = tested on: U251 CNS
SW-620 colon = tested on: SW-620 colon
KM12 colon = tested on: KM12 colon
LOX IMVI melanoma = tested on: LOX IMVI melanoma
IGROV1 ovarian = tested on: IGROV1 ovarian
DLD-1 colon = tested on: DLD-1 colon
SR leukemia = tested on: SR leukemia
SK-OV-3 ovarian = tested on: SK-OV-3 ovarian
A549 NSCLC = tested on: A549 NSCLC
OVCAR-8 ovarian = tested on: OVCAR-8 ovarian
MOLT-4 leukemia = tested on: MOLT-4 leukemia
SN12C renal = tested on: SN12C renal
UACC-62 melanoma = tested on: UACC-62 melanoma
SNB-19 CNS = tested on: SNB-19 CNS
NCI-H23 lung = tested on: NCI-H23 lung
NCI-H522 lung = tested on: NCI-H522 lung
HCT-15 colon = tested on: HCT-15 colon
A498 renal = tested on: A498 renal
SK-MEL-28 melanoma = tested on: SK-MEL-28 melanoma
EKVX NSCLC = tested on: EKVX NSCLC
HOP-62 NSCLC = tested on: HOP-62 NSCLC
RPMI-8226 leukemia = tested on: RPMI-8226 leukemia
DMS 273 small cell lung = tested on: DMS 273 small cell lung
SNB-75 CNS = tested on: SNB-75 CNS
SF-539 CNS = tested on: SF-539 CNS
OVCAR-5 ovarian = tested on: OVCAR-5 ovarian
M14 melanoma = tested on: M14 melanoma
NCI-H226 lung = tested on: NCI-H226 lung
HL-60(TB) leukemia = tested on: HL-60(TB) leukemia
HOP-18 NSCLC = tested on: HOP-18 NSCLC
TK-10 renal = tested on: TK-10 renal
HCC-2998 colon = tested on: HCC-2998 colon
SNB-78 CNS = tested on: SNB-78 CNS
OVCAR-3 ovarian = tested on: OVCAR-3 ovarian
SK-MEL-2 melanoma = tested on: SK-MEL-2 melanoma
OVCAR-4 ovarian = tested on: OVCAR-4 ovarian
K-562 leukemia = tested on: K-562 leukemia
HT29 colon = tested on: HT29 colon
MALME-3M melanoma = tested on: MALME-3M melanoma
COLO 205 colon = tested on: COLO 205 colon
CAKI-1 renal = tested on: CAKI-1 renal
SF-268 CNS = tested on: SF-268 CNS
ACHN renal = tested on: ACHN renal
RXF 393 renal = tested on: RXF 393 renal
M19-MEL melanoma = tested on: M19-MEL melanoma
CCRF-CEM leukemia = tested on: CCRF-CEM leukemia
HCT-116 colon = tested on: HCT-116 colon
KM20L2 colon = tested on: KM20L2 colon
786-0 renal = tested on: 786-0 renal
UO-31 renal = tested on: UO-31 renal
HOP-92 NSCLC = tested on: HOP-92 NSCLC
SK-MEL-5 melanoma = tested on: SK-MEL-5 melanoma
NCI-H460 lung = tested on: NCI-H460 lung
SF-295 CNS = tested on: SF-295 CNS
LXFL 529 NSCLC = tested on: LXFL 529 NSCLC
DMS 114 small cell lung = tested on: DMS 114 small cell lung

Measured: TGI

CN1CCOC(C(NC(=O)c2ccccc2)c2ccccc2)C1=O (stereo not drawn)
not listed: LXFL 529 NSCLC | DMS 114 small cell lung
> 100 µM: all other assays above

N#Cc1ccc(Sc2nc3ccccc3[nH]2)cc1
not listed: HCT-15 colon | A498 renal | RPMI-8226 leukemia | SNB-75 CNS | M14 melanoma | HCC-2998 colon | OVCAR-3 ovarian | HCT-116 colon | KM20L2 colon
> 100 µM: all other assays above
